Experimental data taken from PubChem BioAssay AID1996.
Values after ≈ are worked out from the molar mass of the structure shown.

Settings: buffer; pH 7.4; 200.0 µM
Work on `O=C(O)c1cc(S(=O)(=O)N2CCCCC2)ccc1N1CCCC1` yielded a solubility kinetic greater than 50.8 µg/mL. Work on `S=C(NCc1ccco1)Nc1ccccc1Cl` yielded a solubility kinetic greater than 40 µg/mL. Work on `Cc1cc(OC2CCCCC2)nc(NCc2ccccc2)n1` yielded a solubility kinetic of 0.3 µg/mL (≈ 1.01 µM). In the case of `Cc1onc(-c2ccccc2)c1C(=O)/C=C/N(C)C`, the solubility kinetic is reported as 36.4 µg/mL (≈ 142 µM). For `Cc1noc(C)c1COC(=O)c1cccnc1Cl`, the solubility kinetic was greater than 40 µg/mL. `Cn1c(/C=C/c2ccc(Cl)cc2)c([N+](=O)[O-])c(=O)n(C)c1=O` gave a solubility kinetic of 5 µg/mL (≈ 15.5 µM). In the case of `CCN(CC)S(=O)(=O)c1cccc(NC(=O)COC(=O)c2cncc(Br)c2)c1`, the solubility kinetic is reported as 40.3 µg/mL (≈ 85.7 µM). `COc1ccc(NC2CCCN(C(=O)c3ccncc3)C2)cc1` (centres undefined) showed a solubility kinetic greater than 46.7 µg/mL. Compound `COc1ccc(OCCC(=O)N2CCN(C)CC2)cc1.Cl` has a solubility kinetic greater than 47.2 µg/mL. For `CCN(CC)CC1C(=O)N(c2ccc(OC)cc2)C1c1ccccc1` (centres undefined), the solubility kinetic was greater than 50.8 µg/mL. In the case of `S=C(Nc1ccccc1)N1CCCCCCC1`, the solubility kinetic is reported as greater than 37.3 µg/mL. In the case of `Cc1ccc(N2CCN(C(=O)c3cccs3)CC2)cc1C`, the solubility kinetic is reported as 43.8 µg/mL (≈ 146 µM). For `O=c1[nH]cc(-c2ccc(Br)cc2)n1Cc1ccccc1`, the solubility kinetic was 1.6 µg/mL (≈ 4.86 µM). Compound `COC(=O)/C=C1\SC(=NC(=O)c2ccc(OC)cc2)NC1=O` has a solubility kinetic of 12 µg/mL (≈ 37.5 µM). Compound `O=C(Nc1cc2c3c(c1)CC(=O)N3CCC2)C1CC1` has a solubility kinetic greater than 38.4 µg/mL. For `CC1CN(c2ccc([N+](=O)[O-])c(N3CCCCC3)c2)CCN1` (centres undefined), the solubility kinetic was 42.4 µg/mL (≈ 139 µM). With `Cc1ccc(NC2CC(C)NC(=S)N2)cc1` (centres undefined) the solubility kinetic was 33.1 µg/mL (≈ 141 µM). With `COc1ccc(/C=C2\N=C3CCCN3C2=O)cc1` the solubility kinetic was greater than 36.3 µg/mL. `Cc1ccc(Oc2ncccc2N)c2c1CCC2` showed a solubility kinetic of 10.1 µg/mL (≈ 42 µM). Compound `CCCCOc1ccc(C(=O)N2CCN(c3ncccn3)CC2)cc1` has a solubility kinetic of 12.2 µg/mL (≈ 35.8 µM). In the case of `COc1cc(C(F)(F)F)c(C(=O)NCc2cccc(Cl)c2)cn1`, the solubility kinetic is reported as 5.3 µg/mL (≈ 15.4 µM). `CNC(=O)Nc1ccc(C2SCCS2)cc1` showed a solubility kinetic of 19.9 µg/mL (≈ 78.2 µM). Work on `CCOC(=O)C1=C(c2ccc(O)cc2)NC(=O)NC1C` (centres undefined) yielded a solubility kinetic of 37 µg/mL (≈ 134 µM). `Cc1c(Cl)cccc1NC(=O)NCCCN1CCCC1=O` gave a solubility kinetic greater than 46.5 µg/mL. With `Cc1nc(C)c(C(=O)OCC(=O)Nc2cccc(C)c2C)s1` the solubility kinetic was 39.7 µg/mL (≈ 125 µM). `Cc1cccc(NC(=O)[C@@H]2CCCN2C(=O)OC(C)(C)C)c1C` showed a solubility kinetic of 39.6 µg/mL (≈ 124 µM). In the case of `Nc1cccc(P(=O)(c2ccccc2)c2ccccc2)c1`, the solubility kinetic is reported as greater than 44 µg/mL. Work on `Cc1[nH]c2ccc(C(=O)N3CCC(C(N)=O)CC3)cc2c1C` yielded a solubility kinetic greater than 44.9 µg/mL. With `COc1ccccc1CNC(=O)c1cc2ccccc2oc1=O` the solubility kinetic was less than 0.7 µg/mL. In the case of `Cc1cccc(NS(=O)(=O)c2ccc3oc(=O)ccc3c2)c1C`, the solubility kinetic is reported as 44.8 µg/mL (≈ 136 µM). For `CCOC(=O)C1CCCN(Cc2cc(=O)oc3cc(C)ccc23)C1` (centres undefined), the solubility kinetic was 40.5 µg/mL (≈ 123 µM). `CC(C)[C@H](NC(=O)c1ccccc1Cl)C(=O)OCC(=O)NC(=O)NCc1ccco1` showed a solubility kinetic of 40.1 µg/mL (≈ 92 µM). With `CCc1ccc(CN(C)C(=O)c2cc(=O)c3ccccc3o2)cc1` the solubility kinetic was 35 µg/mL (≈ 109 µM). For `CCN(CC)Cc1c(O)ccc2occ(C(=O)c3ccccc3)c12`, the solubility kinetic was 37.7 µg/mL (≈ 117 µM). `CC(=O)N/C(=N\c1nc(C)cc(C)n1)Nc1ccc2ccccc2c1` gave a solubility kinetic of 0.5 µg/mL (≈ 1.5 µM). `O=C(O)c1ccc(Nc2ccc3nonc3c2[N+](=O)[O-])cc1` gave a solubility kinetic of 44.9 µg/mL (≈ 150 µM). With `CC(OC(=O)Cn1cc(C(F)(F)F)ccc1=O)C(=O)N(C)c1ccccc1` (centres undefined) the solubility kinetic was 57.2 µg/mL (≈ 150 µM). `Cc1ccccc1NC(=O)C1CCN(C(=O)NC2CCCCC2)CC1` showed a solubility kinetic greater than 51.5 µg/mL. For `O=C(/C=C/c1cccc([N+](=O)[O-])c1)OCC(=O)N1CCN(C(=O)c2ccco2)CC1`, the solubility kinetic was 30.9 µg/mL (≈ 74.7 µM). Compound `Cn1c(C(=O)O)c(S(=O)(=O)c2ccc(Cl)cc2)c2ccccc21` has a solubility kinetic of 51.8 µg/mL (≈ 148 µM). With `O=C(c1cc2ccccc2s1)N1CCN(c2ccccn2)CC1` the solubility kinetic was 8.9 µg/mL (≈ 27.5 µM). `CCN(CC)S(=O)(=O)c1cccc(C(=O)NC2=NCCS2)c1` showed a solubility kinetic of 34.8 µg/mL (≈ 102 µM). `CN1CCN(c2ccc([N+](=O)[O-])cc2NC(=O)c2ccco2)CC1` gave a solubility kinetic of 20.8 µg/mL (≈ 63 µM). `O=C(COC(=O)c1nc(Cl)ccc1Cl)c1ccc[nH]1` gave a solubility kinetic of 31.3 µg/mL (≈ 105 µM). For `COc1cccc(C(=O)OCC(=O)NCC2CCCO2)c1` (centres undefined), the solubility kinetic was greater than 44 µg/mL. Work on `O=S(=O)(NCCN1CCOCC1)c1cc(Cl)ccc1Cl` yielded a solubility kinetic of 41.6 µg/mL (≈ 123 µM). In the case of `C=CCNC(=S)Nc1nc2c(cc1C(=O)OCC)COC(C)(C)C2`, the solubility kinetic is reported as 3.1 µg/mL (≈ 8.87 µM). `Cc1ccc(C(=O)O/N=C2/CC3CCC2(C)[C@@]3(C)CBr)cc1` (some centres undefined) showed a solubility kinetic of less than 0.8 µg/mL. In the case of `CCc1nnc(NC(=O)CSc2nnc3nc(C)cc(C)n23)s1`, the solubility kinetic is reported as greater than 52.4 µg/mL. Compound `CCOc1ccccc1OCCC(=O)Nc1ccc2c(c1)OCO2` has a solubility kinetic greater than 49.4 µg/mL. Compound `COc1ccccc1CNC(=O)Cn1c(=O)oc2cc(Cl)ccc21` has a solubility kinetic of 1.7 µg/mL (≈ 4.9 µM). Compound `O=S1(=O)CC2NC(=S)N(c3cccc(Br)c3)C2C1` (centres undefined) has a solubility kinetic greater than 52.1 µg/mL. In the case of `COc1ccc(-c2nc3c4ccccc4ccn3c2CN2CCCCC2)cc1`, the solubility kinetic is reported as 1.7 µg/mL (≈ 4.58 µM). `COC(=O)c1c(C)nc2nonc2c1N` gave a solubility kinetic of 30 µg/mL (≈ 144 µM). Work on `CC(C)c1ccccc1OCCNC(=O)c1cncc(Br)c1` yielded a solubility kinetic of 36.4 µg/mL (≈ 100 µM). For `O=S(=O)(c1ccc(F)cc1)N1CCN(c2ncccn2)CC1`, the solubility kinetic was 8.3 µg/mL (≈ 25.7 µM). With `COCCN1CN=C(NS(=O)(=O)c2ccc(C)cc2)NC1` the solubility kinetic was greater than 46.9 µg/mL. Compound `COc1ccc(C(=O)Nc2ccccc2C(=O)N2CCOCC2)cc1` has a solubility kinetic greater than 51.1 µg/mL. `CC(C)c1onc(C(=O)Nc2cccc(O)c2)c1[N+](=O)[O-]` gave a solubility kinetic of 37.4 µg/mL (≈ 128 µM).
